We go through 1 substance from patent publication US20240139211A1, “METHODS AND COMPOSITIONS FOR TREATING AMYOTROPHIC LATERAL SCLEROSIS” (Amylyx Pharmaceuticals, Inc., priority 2022, published 2024).

The target of one data set is OATP1B3 (Homo sapiens, UniProt Q9NPD5). The data set is described as follows: Inhibitor of OATP1B3, probe substrate uptake. As to conditions: for potency estimated from few doses: read-out: Estimated IC50, OATP1B3.
The test system of a further data set is human hepatocytes. Put plainly: Stability of test articles in hepatocyte cultures. As to conditions: two concentrations.
A further data set concerns the target T1, OCT1 (Homo sapiens, UniProt O15245).
T1 sequence (O15245 1-554): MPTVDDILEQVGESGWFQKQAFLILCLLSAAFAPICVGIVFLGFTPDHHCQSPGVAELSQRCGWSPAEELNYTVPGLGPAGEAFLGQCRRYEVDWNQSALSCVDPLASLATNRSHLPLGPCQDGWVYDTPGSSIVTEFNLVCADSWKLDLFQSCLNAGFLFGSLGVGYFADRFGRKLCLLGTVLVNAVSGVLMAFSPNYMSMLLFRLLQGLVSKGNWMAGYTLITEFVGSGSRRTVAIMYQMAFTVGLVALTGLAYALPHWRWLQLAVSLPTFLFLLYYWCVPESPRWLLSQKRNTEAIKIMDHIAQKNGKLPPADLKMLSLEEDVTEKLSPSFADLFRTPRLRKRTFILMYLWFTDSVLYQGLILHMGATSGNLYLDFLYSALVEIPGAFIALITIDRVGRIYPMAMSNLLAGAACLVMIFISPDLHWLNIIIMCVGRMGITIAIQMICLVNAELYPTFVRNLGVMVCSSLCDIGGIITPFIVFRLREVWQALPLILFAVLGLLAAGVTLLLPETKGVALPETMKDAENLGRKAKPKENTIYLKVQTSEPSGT
Put plainly: Substrate of OCT1, uptake in HEK293 cells. From the text: (§1) Vector-transfected HEK cells were used as a control.

Another data set deals with CYP3A4 mRNA. Put plainly: CYP3A4 gene expression induction in hepatocyte cultures. As to conditions: gene expression and enzyme activity, three donors.
Another data set has as its system CYP1A2 mRNA. The data set is described as follows: CYP1A2 gene expression induction in hepatocyte cultures. As to conditions: gene expression and enzyme activity, three donors.
The target of a further data set is T2, OCT2 (Homo sapiens, UniProt O15244).
T2 sequence (O15244 1-555): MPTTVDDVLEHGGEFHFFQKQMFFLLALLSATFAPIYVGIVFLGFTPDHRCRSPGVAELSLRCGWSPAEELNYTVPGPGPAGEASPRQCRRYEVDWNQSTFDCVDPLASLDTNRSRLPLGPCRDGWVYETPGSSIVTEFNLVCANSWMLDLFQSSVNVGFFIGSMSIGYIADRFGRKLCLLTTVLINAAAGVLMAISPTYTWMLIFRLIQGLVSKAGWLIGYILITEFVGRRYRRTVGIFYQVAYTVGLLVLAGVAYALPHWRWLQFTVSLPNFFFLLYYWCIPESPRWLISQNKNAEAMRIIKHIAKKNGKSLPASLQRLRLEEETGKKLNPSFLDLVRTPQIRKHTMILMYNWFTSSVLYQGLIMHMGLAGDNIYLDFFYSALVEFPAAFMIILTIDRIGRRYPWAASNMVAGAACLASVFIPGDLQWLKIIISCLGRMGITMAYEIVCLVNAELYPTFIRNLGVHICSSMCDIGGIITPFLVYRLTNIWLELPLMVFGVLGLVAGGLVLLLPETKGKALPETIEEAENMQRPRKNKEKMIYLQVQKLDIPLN
Put plainly: Substrate of OCT2, uptake in HEK293 cells.
From the text: as §1

The next data set concerns the target MATE2K (Homo sapiens, UniProt Q86VL8). The data set is described as follows: Substrate of MATE2-K, uptake in HEK293 cells.
From the text: as §1

Another data set addresses T3, OAT1 (Homo sapiens, UniProt Q4U2R8).
T3 sequence (Q4U2R8 1-563): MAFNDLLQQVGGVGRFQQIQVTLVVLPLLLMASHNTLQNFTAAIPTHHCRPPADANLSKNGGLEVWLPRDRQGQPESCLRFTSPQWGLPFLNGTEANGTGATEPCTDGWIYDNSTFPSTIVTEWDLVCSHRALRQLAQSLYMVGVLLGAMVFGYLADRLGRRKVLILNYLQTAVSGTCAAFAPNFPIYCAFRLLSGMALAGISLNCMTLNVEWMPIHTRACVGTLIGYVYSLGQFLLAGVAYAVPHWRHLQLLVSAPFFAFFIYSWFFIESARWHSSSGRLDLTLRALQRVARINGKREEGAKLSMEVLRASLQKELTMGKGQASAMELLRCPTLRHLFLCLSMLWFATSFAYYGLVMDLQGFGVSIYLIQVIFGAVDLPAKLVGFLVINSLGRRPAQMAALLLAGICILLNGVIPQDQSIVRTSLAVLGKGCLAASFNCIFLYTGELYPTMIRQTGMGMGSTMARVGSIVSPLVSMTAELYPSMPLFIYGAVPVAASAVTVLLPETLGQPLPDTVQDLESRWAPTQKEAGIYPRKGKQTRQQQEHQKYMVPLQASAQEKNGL
The data set is described as follows: Inhibitor of OAT1, probe substrate uptake. As to conditions: two concentrations per test article.

In the next data set the target is T4, OAT3 (Homo sapiens, UniProt Q8TCC7).
T4 sequence (Q8TCC7 1-542): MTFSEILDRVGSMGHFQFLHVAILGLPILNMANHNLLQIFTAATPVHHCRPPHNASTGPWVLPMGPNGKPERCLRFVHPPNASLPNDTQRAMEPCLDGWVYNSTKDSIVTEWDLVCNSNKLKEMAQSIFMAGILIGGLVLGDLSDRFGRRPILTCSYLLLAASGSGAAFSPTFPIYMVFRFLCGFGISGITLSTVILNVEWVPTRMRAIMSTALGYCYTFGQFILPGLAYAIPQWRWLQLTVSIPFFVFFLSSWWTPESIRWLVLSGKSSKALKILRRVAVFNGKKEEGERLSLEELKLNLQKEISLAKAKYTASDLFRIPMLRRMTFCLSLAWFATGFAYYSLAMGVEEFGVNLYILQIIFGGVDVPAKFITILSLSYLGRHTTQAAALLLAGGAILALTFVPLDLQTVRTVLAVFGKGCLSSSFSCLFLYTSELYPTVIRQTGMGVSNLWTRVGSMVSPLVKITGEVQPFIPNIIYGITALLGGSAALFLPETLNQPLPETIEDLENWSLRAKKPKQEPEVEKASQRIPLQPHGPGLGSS
Put plainly: Inhibitor of OAT3, probe substrate uptake. As to conditions: for potency estimated from few doses: read-out: Estimated IC50, OAT3.

Setting [1] is: estimated from two concentrations.
Where [2] appears, read: two concentrations per test article.

Like-named read-outs stand apart in the source and are kept apart here.

Sequence of OATP1B3 (Q9NPD5 whole entry): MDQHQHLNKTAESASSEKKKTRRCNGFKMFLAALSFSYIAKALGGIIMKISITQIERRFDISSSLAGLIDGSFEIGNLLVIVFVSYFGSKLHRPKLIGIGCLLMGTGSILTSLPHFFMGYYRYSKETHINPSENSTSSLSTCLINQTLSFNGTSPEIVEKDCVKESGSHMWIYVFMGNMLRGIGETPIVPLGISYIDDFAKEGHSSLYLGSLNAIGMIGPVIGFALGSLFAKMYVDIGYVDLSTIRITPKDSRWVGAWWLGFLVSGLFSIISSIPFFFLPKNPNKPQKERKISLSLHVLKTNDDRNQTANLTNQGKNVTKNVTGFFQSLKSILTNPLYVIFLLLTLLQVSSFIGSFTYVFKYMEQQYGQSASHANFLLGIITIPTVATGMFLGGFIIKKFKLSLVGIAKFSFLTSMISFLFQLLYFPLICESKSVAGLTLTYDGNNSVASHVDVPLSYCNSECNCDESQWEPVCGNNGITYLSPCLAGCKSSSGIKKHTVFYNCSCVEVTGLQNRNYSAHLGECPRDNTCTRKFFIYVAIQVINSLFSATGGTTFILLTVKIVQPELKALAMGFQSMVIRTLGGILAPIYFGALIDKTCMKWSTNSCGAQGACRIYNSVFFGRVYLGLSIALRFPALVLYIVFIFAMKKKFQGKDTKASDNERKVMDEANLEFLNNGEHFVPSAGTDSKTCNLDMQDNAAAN
Sequence of MATE2K (Q86VL8 1-566 isoform Q86VL8-3): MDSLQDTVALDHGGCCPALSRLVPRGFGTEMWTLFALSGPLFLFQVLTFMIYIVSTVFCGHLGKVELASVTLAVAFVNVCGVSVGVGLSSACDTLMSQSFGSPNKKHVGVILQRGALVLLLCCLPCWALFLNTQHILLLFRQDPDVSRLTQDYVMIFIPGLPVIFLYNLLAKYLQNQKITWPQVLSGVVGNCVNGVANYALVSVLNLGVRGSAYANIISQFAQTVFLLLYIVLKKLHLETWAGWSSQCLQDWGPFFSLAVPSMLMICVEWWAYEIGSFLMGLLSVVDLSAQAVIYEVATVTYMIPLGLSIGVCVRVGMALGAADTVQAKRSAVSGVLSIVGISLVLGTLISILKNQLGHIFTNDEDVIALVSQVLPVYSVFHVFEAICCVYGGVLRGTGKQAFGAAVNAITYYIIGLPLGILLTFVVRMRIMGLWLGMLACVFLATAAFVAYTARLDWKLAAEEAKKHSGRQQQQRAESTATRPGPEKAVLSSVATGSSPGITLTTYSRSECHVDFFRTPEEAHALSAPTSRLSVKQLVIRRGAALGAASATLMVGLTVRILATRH

Turning to tauroursodeoxycholic acid [TUDCA], the “Uptake activity remaining, OATP1B3” value on OATP1B3 (50 μM) is reported as “roughly 18%”. In addition, the potency estimated from few doses on OATP1B3 (setting [1]) is less than 50 µM; on OATP1B3 (estimated from two doses), less than 50 µM; at OAT3 (setting [1]), greater than 50 µM; at OAT3 (estimated from two doses), greater than 50 µM. For the same substance, the “Inhibition of OATP1B3” value on OATP1B3 (setting [2]) is given as “inhibited”. In addition, the “Inhibitor of OATP1B3” value at OATP1B3 (setting [2]) is “Yes”. The “% of time zero remaining in hepatocyte cultures” value in the data set on human hepatocytes (1 hour) is no more than 79.9%; with human hepatocytes (4 hours), no more than 75.9%; in the data set with human hepatocytes (24 hours), no more than 23.5%. For the same substance, the “Substrate of OCT1” value on OCT1 (1 and 10 μM) is “not a substrate”; at OCT1 (test article 1 and 10 μM), “No”. In addition, the “Inducer of CYP3A4 (conclusion)” value in the data set with CYP3A4 mRNA is reported as “did not meet the classification requirements to be identified as an inducer”. Moreover, in the data set on CYP1A2 mRNA, the “Inducer of CYP1A2 (conclusion)” value is listed as “did not meet the classification requirements to be identified as an inducer”. Also, the “Substrate of OCT2” value at OCT2 (1 and 10 μM) is reported as “not a substrate”; on OCT2 (test article 1 and 10 μM), “No”. The “Substrate of MATE2-K” value is “not a substrate” on MATE2K (1 and 10 μM); “No” at MATE2K (test article 1 and 10 μM). The “Inhibition of OAT1” value at OAT1 is “did not inhibit”. Also, on OAT1, the “Inhibitor of OAT1” value is on record as “No”. Further, at OAT3 (setting [2]), the “Inhibition of OAT3” value is recorded as “inhibited”. The “Inhibitor of OAT3” value at OAT3 (setting [2]) was “Yes”.
